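Compound exposure: 48 hours, 5 concentrations, 96-well plates. At the GI50, growth is halved.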 Calls of active or inactive are those of the source. Cut-off read from the data, not from the text of the source: active = GI50 up to about 1.1 µM and inactive = higher.
Experiments:
Assay in all cases: DTP human tumour cell line panel, 48 h
ACHN = tested on: ACHN
NCI-H226 = tested on: NCI-H226
IGROV-1 = tested on: IGROV-1
OVCAR-5 = tested on: OVCAR-5
UACC-62 = tested on: UACC-62
SNB-75 = tested on: SNB-75
MDA-MB-231 = tested on: MDA-MB-231
LOX IMVI = tested on: LOX IMVI
UO-31 = tested on: UO-31
SK-MEL-2 = tested on: SK-MEL-2
MDA-N = tested on: MDA-N
MOLT-4 = tested on: MOLT-4
HCT-116 = tested on: HCT-116
KM12 = tested on: KM12
PC-3 = tested on: PC-3
NCI-H23 = tested on: NCI-H23
OVCAR-8 = tested on: OVCAR-8
HT-29 = tested on: HT-29
RPMI-8226 = tested on: RPMI-8226
HL-60 = tested on: HL-60

Row | Compound | GI50 (ACHN) | GI50 (NCI-H226) | GI50 (IGROV-1) | GI50 (OVCAR-5) | GI50 (UACC-62) | GI50 (SNB-75) | GI50 (MDA-MB-231) | GI50 (LOX IMVI) | GI50 (UO-31) | GI50 (SK-MEL-2) | GI50 (MDA-N) | GI50 (MOLT-4) | GI50 (HCT-116) | GI50 (KM12) | GI50 (PC-3) | GI50 (NCI-H23) | GI50 (OVCAR-8) | GI50 (HT-29) | GI50 (RPMI-8226) | GI50 (HL-60)
1 | CC(=O)Nc1ccc(Nc2cc(=O)n(C)c(=O)[nH]2)cc1 | > 100 µM (inactive) | > 100 µM (inactive) | > 100 µM (inactive) | > 100 µM (inactive) | > 100 µM (inactive) | > 100 µM (inactive) | > 100 µM (inactive) | > 100 µM (inactive) | > 100 µM (inactive) | > 100 µM (inactive) | > 100 µM (inactive) | > 100 µM (inactive) | > 100 µM (inactive) | > 100 µM (inactive) | > 100 µM (inactive) | > 100 µM (inactive) | > 100 µM (inactive) | > 100 µM (inactive) | > 100 µM (inactive) | –
2 | CN1C(=O)CC2CCCN2C1=O (stereo unspecified) | > 100 µM (inactive) | > 100 µM (inactive) | > 100 µM (inactive) | > 100 µM (inactive) | > 100 µM (inactive) | > 100 µM (inactive) | > 100 µM (inactive) | > 100 µM (inactive) | > 100 µM (inactive) | > 100 µM (inactive) | > 100 µM (inactive) | > 100 µM (inactive) | – | > 100 µM (inactive) | > 100 µM (inactive) | > 100 µM (inactive) | > 100 µM (inactive) | > 100 µM (inactive) | > 100 µM (inactive) | –
3 | C=C(C)C1CC2(C)C(C)CC(OC(=O)/C(C)=C\C)CC2C(OC(=O)/C(C)=C\C)C1O (stereo unspecified) | 32.9 µM (inactive) | > 100 µM (inactive) | 66.2 µM (inactive) | > 100 µM (inactive) | 84.5 µM (inactive) | 22 µM (inactive) | > 100 µM (inactive) | 38.6 µM (inactive) | 39.8 µM (inactive) | > 100 µM (inactive) | 55.8 µM (inactive) | 25.1 µM (inactive) | 56.1 µM (inactive) | 38.6 µM (inactive) | 46.6 µM (inactive) | 61.9 µM (inactive) | > 100 µM (inactive) | 35.8 µM (inactive) | – | 21.4 µM (inactive)
4 | CN(C)C1=Nc2ccccc2C(=S)N2CSCC12 (stereo unspecified) | > 100 µM (inactive) | > 100 µM (inactive) | 19.1 µM (inactive) | > 100 µM (inactive) | 75.5 µM (inactive) | 57.3 µM (inactive) | 44.3 µM (inactive) | 43.3 µM (inactive) | > 100 µM (inactive) | > 100 µM (inactive) | 39.2 µM (inactive) | 22.4 µM (inactive) | > 100 µM (inactive) | > 100 µM (inactive) | > 100 µM (inactive) | – | > 100 µM (inactive) | 75.9 µM (inactive) | 51.4 µM (inactive) | –
5 | CO[P@@]1(=O)O[C@@H](c2ccccc2)[C@H](O)[C@@]1(O)c1ccccc1 | > 100 µM (inactive) | > 100 µM (inactive) | > 100 µM (inactive) | > 100 µM (inactive) | > 100 µM (inactive) | > 100 µM (inactive) | > 100 µM (inactive) | > 100 µM (inactive) | > 100 µM (inactive) | > 100 µM (inactive) | > 100 µM (inactive) | 22.8 µM (inactive) | > 100 µM (inactive) | > 100 µM (inactive) | > 100 µM (inactive) | > 100 µM (inactive) | > 100 µM (inactive) | 45.6 µM (inactive) | – | > 100 µM (inactive)
6 | CCOC(=O)N1c2ccccc2S(=O)(=O)c2ccccc21 | > 100 µM (inactive) | > 100 µM (inactive) | > 100 µM (inactive) | > 100 µM (inactive) | > 100 µM (inactive) | – | > 100 µM (inactive) | > 100 µM (inactive) | > 100 µM (inactive) | > 100 µM (inactive) | > 100 µM (inactive) | > 100 µM (inactive) | > 100 µM (inactive) | > 100 µM (inactive) | > 100 µM (inactive) | > 100 µM (inactive) | > 100 µM (inactive) | > 100 µM (inactive) | – | > 100 µM (inactive)
7 | CSc1c(C#N)c2n(c3ccccc3[n+]2C)c2ncccc12 | 18.7 µM (inactive) | 16.2 µM (inactive) | 24.7 µM (inactive) | 23.2 µM (inactive) | 17.6 µM (inactive) | 17.3 µM (inactive) | 18.5 µM (inactive) | 14.4 µM (inactive) | 16.1 µM (inactive) | 20.1 µM (inactive) | 21.2 µM (inactive) | 92.5 µM (inactive) | 24.2 µM (inactive) | 22 µM (inactive) | 19.1 µM (inactive) | 21.5 µM (inactive) | 22.3 µM (inactive) | 26.7 µM (inactive) | 25.4 µM (inactive) | –
8 | Cc1cc(S(=O)(=O)Nc2nc3cc(-c4ccc(Cl)cc4)sc3c(=O)n2N)c(S)cc1Cl | 26.5 µM (inactive) | – | 59.6 µM (inactive) | 44.2 µM (inactive) | 31.7 µM (inactive) | > 100 µM (inactive) | 56.6 µM (inactive) | 45.4 µM (inactive) | 44.4 µM (inactive) | 75.2 µM (inactive) | 53.8 µM (inactive) | 21.3 µM (inactive) | 40.3 µM (inactive) | 34.2 µM (inactive) | 63.2 µM (inactive) | 59.8 µM (inactive) | 50.2 µM (inactive) | 54.5 µM (inactive) | > 100 µM (inactive) | –
9 | CC(C)(C)OC/C=C(/CO)[C@@H]1C=C[C@H](O)C1 | > 100 µM (inactive) | > 100 µM (inactive) | – | > 100 µM (inactive) | > 100 µM (inactive) | > 100 µM (inactive) | > 100 µM (inactive) | – | > 100 µM (inactive) | > 100 µM (inactive) | > 100 µM (inactive) | > 100 µM (inactive) | > 100 µM (inactive) | > 100 µM (inactive) | > 100 µM (inactive) | > 100 µM (inactive) | – | > 100 µM (inactive) | > 100 µM (inactive) | –
10 | O=c1[nH]c(=O)n(C2C(CO)OC(CO)C2O)cc1F (stereo unspecified) | > 100 µM (inactive) | > 100 µM (inactive) | > 100 µM (inactive) | > 100 µM (inactive) | > 100 µM (inactive) | > 100 µM (inactive) | > 100 µM (inactive) | > 100 µM (inactive) | > 100 µM (inactive) | > 100 µM (inactive) | > 100 µM (inactive) | > 100 µM (inactive) | > 100 µM (inactive) | > 100 µM (inactive) | > 100 µM (inactive) | > 100 µM (inactive) | > 100 µM (inactive) | > 100 µM (inactive) | > 100 µM (inactive) | –
11 | CCOC(=O)c1ccc(N(CCOS(C)(=O)=O)CCOS(C)(=O)=O)cc1 | 26 µM (inactive) | – | 88.5 µM (inactive) | 34.9 µM (inactive) | 27.8 µM (inactive) | – | 91.2 µM (inactive) | 48.4 µM (inactive) | 20.5 µM (inactive) | 55.2 µM (inactive) | 45.6 µM (inactive) | 17.8 µM (inactive) | 30.1 µM (inactive) | 67.9 µM (inactive) | 50.7 µM (inactive) | 43.3 µM (inactive) | 47 µM (inactive) | 51.6 µM (inactive) | 25.1 µM (inactive) | 39.9 µM (inactive)
12 | CC1=CC(=O)/C(=C/NC(=S)NCc2ccccc2)C(=O)O1 | > 100 µM (inactive) | > 100 µM (inactive) | > 100 µM (inactive) | > 100 µM (inactive) | > 100 µM (inactive) | 80 µM (inactive) | > 100 µM (inactive) | > 100 µM (inactive) | > 100 µM (inactive) | > 100 µM (inactive) | > 100 µM (inactive) | 52.2 µM (inactive) | > 100 µM (inactive) | > 100 µM (inactive) | > 100 µM (inactive) | > 100 µM (inactive) | > 100 µM (inactive) | > 100 µM (inactive) | – | 75.3 µM (inactive)
13 | O=C(OC1C#CCSCC#C/C=C\1)c1cnc2ccccc2n1 (stereo unspecified) | > 100 µM (inactive) | 79.4 µM (inactive) | > 100 µM (inactive) | > 100 µM (inactive) | > 100 µM (inactive) | > 100 µM (inactive) | > 100 µM (inactive) | > 100 µM (inactive) | > 100 µM (inactive) | > 100 µM (inactive) | > 100 µM (inactive) | – | > 100 µM (inactive) | – | > 100 µM (inactive) | > 100 µM (inactive) | 0.409 µM (active) | > 100 µM (inactive) | – | 30.6 µM (inactive)
14 | S=C(S)N1CCN(c2ccc(Cl)c(Cl)c2)CC1 | 37.2 µM (inactive) | – | 28.7 µM (inactive) | 29.9 µM (inactive) | – | 20.7 µM (inactive) | 21.3 µM (inactive) | 16.6 µM (inactive) | – | 17 µM (inactive) | 19.3 µM (inactive) | – | 13.9 µM (inactive) | 16.3 µM (inactive) | 19.6 µM (inactive) | – | 46.9 µM (inactive) | 20.8 µM (inactive) | 19.5 µM (inactive) | 20.9 µM (inactive)
15 | CCN(CC)COC(=S)S | > 100 µM (inactive) | > 100 µM (inactive) | 89.7 µM (inactive) | > 100 µM (inactive) | > 83 µM (inactive) | 30.5 µM (inactive) | 35.4 µM (inactive) | 41.8 µM (inactive) | 62.5 µM (inactive) | 1.82 µM (inactive) | > 63.2 µM (inactive) | 22.3 µM (inactive) | 40.4 µM (inactive) | > 76.2 µM (inactive) | 33.3 µM (inactive) | > 100 µM (inactive) | 42.4 µM (inactive) | 39 µM (inactive) | – | < 0.01 µM (active)
